Assay results published in ChEMBL document CHEMBL5316372, “NMR Fingerprints of Formyl Phloroglucinol Meroterpenoids and Their Application to the Investigation of Eucalyptus gittinsii subsp. gittinsii” (J Nat Prod, 2023).
Converted amounts (≈) assume the structure as drawn.

Legend:
Staphylococcus aureus [1] = assay: Antibacterial activity against Methicillin-resistant Staphylococcus aureus ATCC 43300 incubated for 18 hrs by Luria-Bertani broth based plate reader analysis; format: functional
Staphylococcus aureus [2] = assay: Antibacterial activity against Methicillin-sensitive Staphylococcus aureus ATCC 25923 incubated for 18 hrs by Luria-Bertani broth based plate reader analysis; format: functional
Plasmodium falciparum = assay: Antiplasmodial activity against Plasmodium falciparum 3D7 incubated for 72 hrs by DAPI staining based analysis; format: functional, organism-based; details: 3D7, 72 h
[3] = Cytotoxicity against HEK293 cells assessed as inhibition of cell growth at 40 uM incubated for 72 hrs by resazurin based fluorescence plate reader analysis relative to control; format: toxicity; details: human
HEK293 [4] = assay: Cytotoxicity against HEK293 cells assessed as reduction in cell viability at 40 uM incubated for 72 hrs by resazurin based fluorescence plate reader analysis; format: toxicity; details: human, hek293, 72 h
HEK293 [5] = assay: Cytotoxicity against HEK293 cells assessed as reduction in cell viability at 2.5 uM incubated for 72 hrs by resazurin based fluorescence plate reader analysis; format: toxicity; details: human, hek293, 72 h
[6] = Cytotoxicity against HEK293 cells assessed as inhibition of cell growth at 5 uM incubated for 72 hrs by resazurin based fluorescence plate reader analysis relative to control; format: toxicity; details: human

| Compound | MIC50 (Staphylococcus aureus [1]) [µM] | MIC50 (Staphylococcus aureus [2]) [µM] | IC50 (Plasmodium falciparum) [nM] | inhibition at 72 h, 40 µM [3] [%] | Activity (HEK293 [4]) | Activity (HEK293 [5]) | inhibition at 72 h, 5 µM [6] [%] |
| --- | --- | --- | --- | --- | --- | --- | --- |
| C=C(C)[C@@H]1C=C2[C@@H](C)CC[C@@H](Cc3c(O)c(C=O)c(O)c(C(=O)CC(C)C)c3O)[C@]2(C)CC1 | 4.7 (≈ 2.14 µg/mL) | 4.7 (≈ 2.14 µg/mL) | 1300 | > 85 | – | – | – |
| C/C1=C\[C@H]2[C@@H](CC[C@]3(C)Oc4c(C=O)c(O)c(C(=O)CC(C)C)c(O)c4C[C@H]3CC1)C2(C)C | > 75 | > 75 | 23600 | – | Non-Toxic | – | – |
| C/C1=C\[C@@H]2[C@H](CC[C@@]3(C)Oc4c(c(O)c(C=O)c(O)c4C(=O)CC(C)C)C[C@@H]3CC1)C2(C)C | 75 (≈ 34.1 µg/mL) | 75 (≈ 34.1 µg/mL) | 15700 | – | Non-Toxic | – | – |
| C[C@H]1[C@H](OC(=O)CCC(=O)O)O[C@@H]2O[C@@]3(C)CC[C@H]4[C@H](C)CC[C@@H]1[C@@]24OO3 [ARTESUNATE] | – | – | 3 | – | – | Non-Toxic | – |
| CC(=O)O[C@H]1C[C@@]2(C)[C@@H](C[C@@H](O)[C@H]3[C@@]4(C)CC[C@@H](O)[C@@H](C)[C@@H]4CC[C@@]32C)/C1=C(\CCC=C(C)C)C(=O)O [FUSIDIC ACID] | < 0.12 | < 0.12 | – | – | – | – | – |
| COc1ccc(C[C@H](N)C(=O)N[C@H]2[C@@H](O)[C@H](n3cnc4c(N(C)C)ncnc43)O[C@@H]2CO)cc1 [PUROMYCIN] | – | – | 80 | – | – | – | 0.89 |
| CCc1nc(N)nc(N)c1-c1ccc(Cl)cc1 [PYRIMETHAMINE] | – | – | 20 | 33.4 | – | – | – |
